Reference: patent US10076519B2 (CYTOKINETICS, INC., priority 2010, dated 2018)

Tested on: rabbit skeletal myofibrils (fast skeletal myofibrils)
Assay: Activation of fast skeletal myofibrils (PUMA assay, PK/LDH-coupled ATPase at pCa25)
Format: biochemical
Settings: AC1.4 determined according to the procedure of Example 39; reported as class symbols
Method in brief: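 Detergent-washed rabbit psoas myofibrils (~90% fast fibres, calcium-regulated) assayed at calcium giving 25% of maximal ATPase rate (pCa25). ADP turnover coupled via pyruvate kinase/lactate dehydrogenase to NADH oxidation, read at 340 nm. Buffer 12 mM PIPES, 2 mM MgCl2, 1 mM DTT, pH 6.8; AC1.4 values derived.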

Structure (SMILES)	Mean AC1.4
CC(C)(CNc1ccc(-c2ccc3[nH]nc(N)c3c2)nn1)c1ncc(F)cc1F [[6-(3-amino(1H-indazol-5-yl))pyridazin-3-yl][2-(3,5-difluoro(2-pyridyl))-2-methylpropyl]amine]	A (A=<1 uM)
NCCNc1n[nH]c2ccc(-c3ccc(NCC4(c5ncccc5F)CCC4)nn3)cc12 [(6-{3-[(2-aminoethyl)amino](1H-indazol-5-yl)}pyridazin-3-yl){[(3-fluoro(2-pyridyl))cyclobutyl]methyl}amine]	A (A=<1 uM)
NC(=O)c1cccc(-c2ccc(NCC3CCc4ccccc43)nn2)c1 (stereo not drawn) [3-{6-[(indanylmethyl)amino]pyridazin-3-yl}benzamide]	B (B=1-10 uM)
Oc1ccnc(C2(CNc3ccc(-c4ccc5cn[nH]c5c4)nn3)CCC2)c1	D (D=>20 uM)
Cc1nc2cc(-c3ccc(NCC(C)(C)c4ccc(F)cc4)nn3)ccc2[nH]1 [[2-(4-fluorophenyl)-2-methylpropyl][6-(2-methylbenzimidazol-5-yl)pyridazin-3-yl]amine]	B (B=1-10 uM)
Fc1cccnc1C1(CNc2ccc(-c3ccc4[nH]ncc4c3)nn2)CCC1 [(6-(1H-indazol-5-yl)pyridazin-3-yl){[(3-fluoro(2-pyridyl))cyclobutyl]methyl}amine]	A (A=<1 uM)
CC(C)(CNc1ccc(-c2ccccc2)nn1)c1ccc(F)cc1 [[2-(4-fluorophenyl)-2-methylpropyl](6-phenylpyridazin-3-yl)amine]	A (A=<1 uM)
CC(C)(CNc1ccc(-c2ccccc2F)nn1)c1ccc(F)cc1 [[2-(4-fluorophenyl)-2-methylpropyl][6-(2-fluorophenyl)pyridazin-3-yl]amine]	A (A=<1 uM)
NC(=O)c1cncc(-c2ccc(NCC3(c4ccc(F)cc4)CC3)nn2)c1 [5-[6-({[(4-fluorophenyl)cyclopropyl]meth-yl}amino)pyridazin-3-yl]pyridine-3-carboxamide]	B (B=1-10 uM)
CC(C)(CNc1ccc(-c2cccc(C(=O)N3CCCCC3)c2)nn1)c1ccc(F)cc1 [3-(6-{[2-(4-fluorophenyl)-2-methylpropyl]amino}pyridazin-3-yl)phenyl piperidyl ketone]	B (B=1-10 uM)
CC(C)(CNc1ccc(-c2cc(N)[nH]n2)nn1)c1ccc(F)cc1 [[6-(5-aminopyrazol-3-yl)pyridazin-3-yl][2-(4-fluorophenyl)-2-methylpropyl]amine]	B (B=1-10 uM)
CC(C)Cc1ccc(NCC(C)(C)c2ccc(F)cc2)nn1 [[2-(4-fluorophenyl)-2-methylpropyl][6-(2-methylpropyl)pyridazin-3-yl]amine]	B (B=1-10 uM)
NC(=O)c1cccc(-c2ccc(NCC3(C(=O)O)CCC3)nn2)c1 [1-({[6-(3-carbamoylphenyl)pyridazin-3-yl]amino}methyl)cyclobutane-carboxylic acid]	D (D=>20 uM)
CC(=O)N1CC(CNc2ccc(-c3cccc(C(N)=O)c3)nn2)(c2ncccc2F)C1 [3-[6-({[1-acetyl-3-(3-fluoro(2-pyridyl))azetidin-3-yl]methyl}amino)pyridazin-3-yl]benzamide]	D (D=>20 uM)

Same assay, conditions: median AC1.4 class, procedure of Example 39

Structure (SMILES)	Mean AC1.4
Nc1n[nH]c2ccc(-c3ccc(NC[C@]4(c5ncccc5F)C[C@H](F)C4)nn3)cc12 [[6-(3-amino(1H-indazol-5-yl))pyridazin-3-yl]{[3-fluoro-1-(3-fluoro(2-pyridyl))cyclobutyl]methyl}amine]	A (A=<1 uM)
NC(=O)c1nc(-c2ccc(NCC3(c4ncccc4F)CCC3)nn2)no1 [3-[6-({[(3-fluoro-2-pyridyl)cyclobutyl]methyl}ami-no)pyridazin-3-yl]-1,2,4-oxadiazole-5-carboxamide]	B (B=1-10 uM)
CN(CC1(c2ccccn2)CCC1)c1ccc(-c2cccc(C(N)=O)c2)nn1 [3-(6-{methyl[(2-pyridylcyclobutyl)methyl]ami-no}pyridazin-3-yl)benzamide]	D (D=>20 uM)
Fc1cccnc1C1(Nc2ccc(-c3ccccc3)nn2)CCC1 [[(3-fluoro(2-pyridyl))cyclobutyl](6-phenylpyridazin-3-yl)amine]	B (B=1-10 uM)
NS(=O)(=O)c1cccc(-c2ccc(NC[C@]3(c4ncccc4F)C[C@H](F)C3)nn2)c1 [3-[6-({[3-fluoro-1-(3-fluoro(2-pyridyl))cyclobutyl]methyl}ami-no)pyridazin-3-yl]benzenesulfonamide]	B (B=1-10 uM)
NC(=O)c1ncccc1-c1ccc(NCC2(c3ncccc3F)CCC2)nn1	C (C=10-20 uM)
NC(=O)c1cccc(-c2ccc(NC3(c4ncccc4F)CCC3)nn2)c1	B (B=1-10 uM)
O=C(N[C@@H]1CCNC1)c1cnc(-c2ccc(NCC3(c4ncccc4F)CCC3)nn2)s1 [N-((3R)pyrrolidin-3-yl){2-[6-({[(3-fluoro(2-pyridyl))cyclobutyl]methyl}ami-no)pyridazin-3-yl](1,3-thiazol-5-yl)}carboxamide]	A (A=<1 uM)
COc1cccc(C2(Nc3ccc(-c4cc(C(N)=O)ccc4F)nn3)CCC2)n1	A (A=<1 uM)
O=c1[nH]nc(-c2ccc(NCC3(c4ncccc4F)CCC3)nn2)[nH]1 [3-[6-({[(3-fluoro-2-pyridyl)cyclobutyl]methyl}ami-no)pyridazin-3-yl]-1,2,4-triazolin-5-one]	C (C=10-20 uM)
NS(=O)(=O)Nc1ccc(-c2ccc(NC3(c4ncccc4F)CCC3)nn2)c(F)c1	B (B=1-10 uM)
O=C(NCc1cnc(-c2ccc(NCC3(c4ncccc4F)CCC3)nn2)s1)[C@H]1C[C@@H](F)CN1 [((2R,4R)-4-fluoropyrrolidin-2-yl)-N-({2-[6-({[(3-fluoro(2-pyridyl))cyclobutyl]methyl}ami-no)pyridazin-3-yl](1,3-thiazol-5-yl)}methyl)carboxamide]	A (A=<1 uM)
O=C(OCc1ccccc1)N1CC(c2ccc(NCC3(c4ncccc4F)CCC3)nn2)C1	D (D=>20 uM)
COc1nc(-c2ccc(NCC3(c4ncccc4F)CCC3)nn2)sc1C(N)=O [2-[6-({[(3-fluoro(2-pyridyl))cyclobutyl]methyl}ami-no)pyridazin-3-yl]-4-methoxy-1,3-thiazole-5-carboxamide]	A (A=<1 uM)

Same assay, conditions: median AC1.4 reported as class; procedure of Example 39

Structure (SMILES)	Mean AC1.4
C[C@H](N)C(=O)OCC(=O)NCc1cnc(-c2ccc(NCC3(c4ncccc4F)CCC3)nn2)s1 [[N-({2-[6-({[(3-fluoro-2-pyridyl)cyclobutyl]methyl}ami-no)pyridazin-3-yl]-1,3-thiazol-5-yl}methyl)carbamoyl]methyl (2S)-2-aminopropanoate]	A (A=<1 uM)
COC(=O)NC1CCc2sc(-c3ccc(NCC4(c5ncccc5F)CCC4)nn3)nc21 (stereo not drawn) [N-{2-[6-({[(3-fluoro(2-pyridyl))cyclobutyl]methyl}ami-no)pyridazin-3-yl](4,5,6-trihydrocyclopenta[2,3-d]1,3-thiazol-4-yl)}methoxycarboxamide]	D (D=>20 uM)
Fc1cccnc1C1(CNc2ccc(-c3ncc(CN4CCOCC4)s3)nn2)CCC1 [{[(3-fluoro(2-pyridyl))cyclobutyl]methyl}{6-[5-(morpholin-4-ylmethyl)(1,3-thiazol-2-yl)]pyridazin-3-yl}amine]	B (B=1-10 uM)
CNC(=O)N(C)c1ccc(-c2ccc(NC[C@]3(c4ncccc4F)C[C@H](F)C3)nn2)cc1 [N-{4-[6-({[3-fluoro-1-(3-fluoro(2-pyridyl))cyclobutyl]methyl}ami-no)pyridazin-3-yl]phenyl}-N-methyl(methylamino)carboxamide]	D (D=>20 uM)
CNC(=O)c1ccc(-c2ccc(NCC3(c4ncccc4F)CCC3)nn2)s1 [{5-[6-({[(3-fluoro(2-pyridyl))cyclobutyl]methyl}ami-no)pyridazin-3-yl](2-thienyl)}-N-methylcarboxamide]	B (B=1-10 uM)
CNC(=O)Cc1cnc(-c2ccc(NCC3(c4ncccc4F)CCC3)nn2)s1 [2-{2-[6-({[(3-fluoro(2-pyridyl))cyclobutyl]methyl}ami-no)pyridazin-3-yl](1,3-thiazol-5-yl)}-N-methylacetamide]	B (B=1-10 uM)
O=C(O)c1cccc(-c2ccc(NC[C@]3(c4ncccc4F)C[C@H](F)C3)nn2)c1O [3-[6-({[3-fluoro-1-(3-fluoro(2-pyridyl))cyclobutyl]methyl}ami-no)pyridazin-3-yl]-2-hydroxybenzoic acid]	C (C=10-20 uM)
NC(=O)c1cc(-c2ccc(NC[C@]3(c4ncccc4F)C[C@H](F)C3)nn2)cc(C(F)(F)F)c1 [3-[6-({[3-fluoro-1-(3-fluoro(2-pyridyl))cyclobutyl]methyl}ami-no)pyridazin-3-yl]-5-(trifluoromethyl)benzamide]	B (B=1-10 uM)
O=C(NCC1(O)CC1)c1cccc(-c2ccc(NC[C@]3(c4ncccc4F)C[C@H](F)C3)nn2)c1 [{3-[6-({[3-fluoro-1-(3-fluoro(2-pyridyl))cyclobutyl]methyl}ami-no)pyridazin-3-yl]phenyl}-N-[(hydroxycyclopropyl)methyl]car-boxamide]	A (A=<1 uM)
CNC(=O)Nc1ccc(-c2ccc(NC[C@]3(c4ncccc4F)C[C@H](F)C3)nn2)cc1 [N-{4-[6-({[3-fluoro-1-(3-fluoro(2-pyridyl))cyclobutyl]methyl}ami-no)pyridazin-3-yl]phenyl}(methylamino)carbox-amide]	A (A=<1 uM)
O=C(O)c1ccc(NCC2(c3ncccc3F)CCC2)nn1 [6-({[(3-fluoro-2-pyridyl)cyclobutyl]methyl}ami-no)pyridazine-3-carboxylic acid]	D (D=>20 uM)
